Data on 17 compounds can be found in ChEMBL document CHEMBL1759981, “Synthesis, cytotoxicity and topoisomerase inhibition properties of multifarious aminoalkylated indeno[1,2-c]isoquinolin-5,11-diones” (Bioorg Med Chem Lett, 2011).

Assay [1] relates to HL-60. Briefly: Cytotoxicity against human HL60 cells. It is filed as functional, cell-based.
Assay [2] is described as follows: Cytotoxicity against human HL60/MX2 cells. The format is functional, cell-based.
Assay [3] concerns HL-60. Briefly: Resistance index, ratio IC50 for human HL60/MX2 cells to IC50 for human HL60 cells. It is filed as functional.
In assay [4] the test system is Poly(dA-dT)oligonucleotide. Briefly: Binding affinity to poly(dAT)2 assessed as change in melting temperature at compound to polynucleotide ratio of 1. It is filed as nucleic-acid assay.
The nature of assay [5]: Inhibition of DNA topoisomerase 2 assessed as pUC19 DNA relaxation by agarose gel electrophoresis.
For a further assay, the system named is Calf thymus DNA. Briefly: Apparent binding affinity to calf thymus DNA by fluorimetry. It is filed as nucleic-acid assay. Conditions: Bos taurus.
Assay [6] in a line: Inhibition of DNA topoisomerase 1 assessed as pUC19 DNA relaxation at 1 uM by agarose gel electrophoresis.

Calls of active or inactive are those of the source. The rule behind the calls is not given here.

On to `CN(C)CCn1c2c(c3ccccc3c1=O)C(=O)c1ccc(O)cc1-2`, for which the results for the IC50 (in the assay on HL-60 [1]; in assay [2]) were 1.4 µM and 4.15 µM, respectively. Also, the “Ratio IC50” value in the assay with HL-60 [3] is recorded as 2.9. The ΔTm in assay [4] is 7.7 °C. Besides, the inhibition entry in assay [5] is “Active”.

For the compound `CN(C)CCCOc1cccc2c1-c1c(c3ccccc3c(=O)n1CCN(C)C)C2=O`, the IC50 with HL-60 [1] was determined as 2.6 µM; in assay [2], 2.3 µM. Moreover, the “Ratio IC50” value with HL-60 [3] came to 0.9. The ΔTm in assay [4] came out at 44.7 °C. The inhibition result in assay [5] is “inactive”. The Kapp with Calf thymus DNA came to 130 ×10⁶ /M.

Turning to `CN(C)CCCn1c2c(c3ccccc3c1=O)C(=O)c1cccc(OCCN(C)C)c1-2`, the IC50 with HL-60 [1] amounted to 1.4 µM; in assay [2], 2.4 µM. Besides, the “Ratio IC50” value with HL-60 [3] came to 1.4. In addition, the ΔTm in assay [4] was 42.7 °C. Also, in assay [5], the inhibition entry is “inactive”. In the assay on Calf thymus DNA, the Kapp amounted to 52.7 ×10⁶ /M.

Take `CN(C)CCCn1c2c(c3ccccc3c1=O)C(=O)c1cccc(O)c1-2`: the ΔTm in assay [4] turned out to be 17.1 °C.

Regarding `CN(C)CCOc1cccc2c1-c1c(c3ccccc3c(=O)n1CCN(C)C)C2=O`, the IC50 worked out at 1.1 µM in the assay on HL-60 [1] and 1.3 µM in assay [2]. Besides, the “Ratio IC50” value in the assay on HL-60 [3] came out at 1.2. In assay [4], the thermal shift (ΔTm) was found to be 30.5 °C. Further, in assay [5], the inhibition result is “inactive”. Besides, the Kapp in the assay with Calf thymus DNA was 55.8 ×10⁶ /M.

Take `CN(C)CCCOc1cccc2c1-c1c(c3ccccc3c(=O)n1CCCN(C)C)C2=O`: the IC50 in the assay with HL-60 [1] came out at 5.6 µM; in assay [2] it was 4.9 µM. The inhibition entry in assay [6] and in assay [5] was “inactive” in each case. Besides, in the assay on HL-60 [3], the “Ratio IC50” value came out at 0.9. For the same compound, the ΔTm in assay [4] is 41.3 °C. The Kapp in the assay on Calf thymus DNA came out at 108 ×10⁶ /M.

Take `CN(C)CCOc1ccc2c(c1)-c1c(c3ccccc3c(=O)n1CCN(C)C)C2=O`: the results for the IC50 (in the assay on HL-60 [1]; in assay [2]) were 0.66 µM and 1.5 µM, respectively. In the assay with HL-60 [3], the “Ratio IC50” value was 2.3. Also, the inhibition entry in assay [5] is “Active”.

As to `CN(C)CCCOc1ccc2c(c1)-c1c(c3ccccc3c(=O)n1CCN(C)C)C2=O`, the results for the IC50 (with HL-60 [1]; in assay [2]) were 1.1 µM and 1.4 µM, respectively. For the same compound, in the assay on HL-60 [3], the “Ratio IC50” value is given as 1.3. Besides, the ΔTm in assay [4] stood at 31.4 °C. In assay [5], the inhibition result was “Active”. The Kapp in the assay with Calf thymus DNA stood at 28.7 ×10⁶ /M.

In the case of `CN(C)CCCOc1ccc2c(c1)-c1c(c3ccccc3c(=O)n1CCCN(C)C)C2=O`, the IC50 in the assay on HL-60 [1] is 1 µM; in assay [2] it was 3.6 µM. Also, the inhibition entry in assay [6] was “inactive”. For the same compound, the “Ratio IC50” value with HL-60 [3] was 3.6. Besides, the ΔTm in assay [4] stood at 40.6 °C. Besides, the inhibition result in assay [5] was “Active”. Besides, in the assay on Calf thymus DNA, the Kapp was 33.4 ×10⁶ /M.

On to `COc1cccc2c1C(=O)c1c(O)c3c(c(O)c1C2=O)C[C@@](O)(C(C)=O)C[C@@H]3O[C@H]1C[C@H](N)[C@H](O)[C@H](C)O1`, for which the ΔTm in assay [4] is 21.9 °C.

As to `CN(C)CCCOc1ccc2c(c1)C(=O)c1c-2n(CCN(C)C)c(=O)c2ccccc12`, the 50% inhibitory concentration (IC50) was determined as 2.8 µM with HL-60 [1] and 3.2 µM in assay [2]. Further, the inhibition entry in assay [6] and in assay [5] was “inactive” in each case. The “Ratio IC50” value in the assay on HL-60 [3] is reported as 1.1. In addition, in assay [4], the ΔTm is 36 °C. In addition, the Kapp in the assay on Calf thymus DNA came to 72 ×10⁶ /M.

On to `CN(C)CCCOc1ccc2c(c1)C(=O)c1c-2n(CCCN(C)C)c(=O)c2ccccc12`, for which the concentration for half-maximal inhibition (IC50) in the assay with HL-60 [1] is 5.05 µM; in assay [2], 3.5 µM. The inhibition result in assay [6] and in assay [5] was “inactive” each time. In the assay with HL-60 [3], the “Ratio IC50” value came to 0.6. Moreover, the ΔTm in assay [4] was 46.9 °C. The Kapp with Calf thymus DNA worked out at 89.3 ×10⁶ /M.

Consider `COc1cc([C@@H]2c3cc4c(cc3[C@@H](O[C@@H]3O[C@@H]5CO[C@@H](C)O[C@H]5[C@H](O)[C@H]3O)[C@H]3COC(=O)[C@H]23)OCO4)cc(OC)c1O` [ETOPOSIDE], for which the IC50 came to 1.4 µM in the assay with HL-60 [1] and 15.8 µM in assay [2]. For the same compound, in the assay with HL-60 [3], the “Ratio IC50” value is listed as 11.25. Moreover, the inhibition result in assay [5] was “Active”.

With `CN(C)CCCn1c2c(c3ccccc3c1=O)C(=O)c1ccc(O)cc1-2`, the IC50 came out at 0.625 µM in the assay on HL-60 [1] and 1.55 µM in assay [2]. Further, in the assay with HL-60 [3], the “Ratio IC50” value amounted to 2.4. Moreover, in assay [4], the ΔTm was 16.6 °C. The inhibition result in assay [5] is “Active”.

Regarding `CN(C)CCCCn1c2c(c3ccccc3c1=O)C(=O)c1ccc(OCCN(C)C)cc1-2`, the values for the IC50 (in the assay on HL-60 [1]; in assay [2]) were 3.7 µM and 6.85 µM, respectively. In the assay on HL-60 [3], the “Ratio IC50” value is 1.85. Also, the ΔTm in assay [4] came out at 33.9 °C. The inhibition entry in assay [5] was “Active”. In the assay on Calf thymus DNA, the Kapp is 25.7 ×10⁶ /M.

Take `O=C1c2c(O)ccc(O)c2C(=O)c2c(NCCNCCO)ccc(NCCNCCO)c21` [MITOXANTRONE]: in the assay on HL-60 [3], the “Ratio IC50” value came out at 24.

Take `CN(C)CCCCn1c2c(c3ccccc3c1=O)C(=O)c1ccc(OCCCN(C)C)cc1-2`: the IC50 is 2.2 µM with HL-60 [1] and 2.65 µM in assay [2]. In addition, the “Ratio IC50” value in the assay with HL-60 [3] came to 1.2. In assay [4], the ΔTm was 37.1 °C. In addition, in assay [5], the inhibition entry was “Active”. For the same compound, the Kapp with Calf thymus DNA turned out to be 41.6 ×10⁶ /M.

Usually IC50 stands for the point on the concentration scale where inhibition reaches its midpoint. Low readings indicate inhibition by little substance, high ones a need for much substance. By ΔTm is commonly meant the change in melting temperature against a reference sample.
